In ChEMBL document CHEMBL3046368, “Synthesis of benzothiazole derivatives and their biological evaluation as anticancer agents” (2012):
Active and inactive are the calls of the source. The calls are words filed in the database; no cut-off is given here.

How the values were obtained:
[1] = tested on: SF-539; test: Cytotoxicity against Homo sapiens (human) SF539 cells after 48 hr by SRB assay; type: functional; details: SF-539, 48 h
[2] = tested on: UO-31; test: Cytotoxicity against Homo sapiens (human) UO31 cells after 48 hr by SRB assay; type: functional; details: UO-31, 48 h
[3] = tested on: SNB-19; test: Cytotoxicity against Homo sapiens (human) SNB19 cells after 48 hr by SRB assay; type: functional; details: SNB-19, 48 h
[4] = Cytotoxicity against Homo sapiens (human) breast cancer cells assessed as cell growth at 10^-5 M after 48 hr by SRB assay relative to control; type: functional; details: Cancer cell lines, read-out: Activity
[5] = tested on: T47D; test: Cytotoxicity against Homo sapiens (human) T47D cells after 48 hr by SRB assay; type: functional
[6] = Cytotoxicity against Homo sapiens (human) renal cancer cells assessed as cell growth at 10^-5 M after 48 hr by SRB assay relative to control; type: functional; details: Cancer cell lines, read-out: Activity
[7] = tested on: SK-MEL-2; test: Cytotoxicity against Homo sapiens (human) SK-MEL-2 cells after 48 hr by SRB assay; type: functional; details: SK-MEL-2, 48 h
[8] = tested on: CCRF-CEM; test: Cytotoxicity against Homo sapiens (human) CCRF-CEM cells after 48 hr by SRB assay; type: functional
[9] = tested on: SF-268; test: Cytotoxicity against Homo sapiens (human) SF268 cells after 48 hr by SRB assay; type: functional; details: SF-268, 48 h
[10] = tested on: HCT-116; test: Cytotoxicity against Homo sapiens (human) HCT116 cells after 48 hr by SRB assay; type: functional; details: HCT-116, 48 h
[11] = tested on: M14; test: Cytotoxicity against Homo sapiens (human) M14 cells after 48 hr by SRB assay; type: functional; details: M14, 48 h
[12] = tested on: IGROV-1; test: Cytotoxicity against Homo sapiens (human) IGROV1 cells after 48 hr by SRB assay; type: functional; details: IGROV-1, 48 h
[13] = tested on: K562; test: Cytotoxicity against Homo sapiens (human) K562 cells after 48 hr by SRB assay; type: functional; details: K562, 48 h
[14] = tested on: PC-3; test: Cytotoxicity against Homo sapiens (human) PC3 cells after 48 hr by SRB assay; type: functional; details: PC-3, 48 h
[15] = Cytotoxicity against Homo sapiens (human) colon cancer cells assessed as cell growth at 10^-5 M after 48 hr by SRB assay relative to control; type: functional; details: Cancer cell lines, read-out: Activity
[16] = tested on: MCF7; test: Cytotoxicity against Homo sapiens (human) MCF7 cells after 48 hr by SRB assay; type: functional; details: MCF7, 48 h
[17] = tested on: UACC-62; test: Cytotoxicity against Homo sapiens (human) UACC62 cells after 48 hr by SRB assay; type: functional; details: UACC-62, 48 h
[18] = Cytotoxicity against Homo sapiens (human) prostate cancer cells assessed as cell growth at 10^-5 M after 48 hr by SRB assay relative to control; type: functional; details: Cancer cell lines, read-out: Activity
[19] = Cytotoxicity against Homo sapiens (human) NSCLC cells assessed as cell growth at 10^-5 M after 48 hr by SRB assay relative to control; type: functional; details: read-out: Activity
[20] = tested on: DU-145; test: Cytotoxicity against Homo sapiens (human) DU145 cells after 48 hr by SRB assay; type: functional; details: DU-145, 48 h
[21] = Cytotoxicity against Homo sapiens (human) leukemia cells assessed as cell growth at 10^-5 M after 48 hr by SRB assay relative to control; type: functional; details: read-out: Activity
[22] = tested on: OVCAR-3; test: Cytotoxicity against Homo sapiens (human) OVCAR3 cells after 48 hr by SRB assay; type: functional; details: OVCAR-3, 48 h
[23] = tested on: HCC 2998; test: Cytotoxicity against Homo sapiens (human) HCC2998 cells after 48 hr by SRB assay; type: functional; details: HCC 2998, 48 h
[24] = tested on: LOX IMVI; test: Cytotoxicity against Homo sapiens (human) LOXIMVI cells after 48 hr by SRB assay; type: functional
[25] = tested on: SK-MEL-5; test: Cytotoxicity against Homo sapiens (human) SK-MEL-5 cells after 48 hr by SRB assay; type: functional; details: SK-MEL-5, 48 h
[26] = tested on: ACHN; test: Cytotoxicity against Homo sapiens (human) ACHN cells after 48 hr by SRB assay; type: functional
[27] = tested on: MDA-MB-231; test: Cytotoxicity against Homo sapiens (human) MDA-MB-231 cells after 48 hr by SRB assay; type: functional; details: MDA-MB-231, 48 h
[28] = tested on: Hs-578T; test: Cytotoxicity against Homo sapiens (human) Hs578T cells after 48 hr by SRB assay; type: functional
[29] = tested on: SW-620; test: Cytotoxicity against Homo sapiens (human) SW620 cells after 48 hr by SRB assay; type: functional; details: SW-620, 48 h
[30] = target: T1, Ubiquitin-like modifier-activating enzyme 1 (Homo sapiens) (UniProt P22314); test: Inhibition of ubiquitin displacement on His6-tagged E2 enzyme from His6-tagged UBA1 (unknown origin) at 10 uM after 1.5 hr by SDS-PAGE analysis
T1 sequence (whole entry): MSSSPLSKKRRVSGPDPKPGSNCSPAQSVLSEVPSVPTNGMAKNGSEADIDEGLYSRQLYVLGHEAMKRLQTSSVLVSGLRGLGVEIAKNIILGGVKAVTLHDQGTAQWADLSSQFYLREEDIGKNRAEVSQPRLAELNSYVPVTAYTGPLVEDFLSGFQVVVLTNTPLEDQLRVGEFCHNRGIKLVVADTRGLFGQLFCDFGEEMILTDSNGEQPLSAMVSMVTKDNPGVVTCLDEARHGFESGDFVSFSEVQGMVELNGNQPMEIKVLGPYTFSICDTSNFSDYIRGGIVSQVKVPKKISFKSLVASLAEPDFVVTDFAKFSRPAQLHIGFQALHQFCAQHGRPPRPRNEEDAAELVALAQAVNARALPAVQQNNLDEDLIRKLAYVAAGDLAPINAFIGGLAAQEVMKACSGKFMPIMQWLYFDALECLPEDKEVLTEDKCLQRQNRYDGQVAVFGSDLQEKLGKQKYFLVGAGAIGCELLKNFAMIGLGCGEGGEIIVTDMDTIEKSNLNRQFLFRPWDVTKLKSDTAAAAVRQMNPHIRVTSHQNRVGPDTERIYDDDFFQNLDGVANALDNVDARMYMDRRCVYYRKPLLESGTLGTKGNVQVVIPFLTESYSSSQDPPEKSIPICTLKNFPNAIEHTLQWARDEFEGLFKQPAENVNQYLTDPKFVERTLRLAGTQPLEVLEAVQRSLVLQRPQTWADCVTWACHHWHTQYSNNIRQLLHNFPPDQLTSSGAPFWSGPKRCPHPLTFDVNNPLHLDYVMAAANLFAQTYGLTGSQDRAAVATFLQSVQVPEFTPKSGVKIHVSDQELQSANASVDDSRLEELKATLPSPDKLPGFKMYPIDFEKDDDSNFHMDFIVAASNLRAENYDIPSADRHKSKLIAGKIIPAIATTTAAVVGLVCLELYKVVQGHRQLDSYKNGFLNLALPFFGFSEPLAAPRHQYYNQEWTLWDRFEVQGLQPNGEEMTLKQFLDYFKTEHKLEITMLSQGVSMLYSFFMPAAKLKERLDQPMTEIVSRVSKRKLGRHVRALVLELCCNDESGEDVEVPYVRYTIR

[31] = tested on: NCI-H522; test: Cytotoxicity against Homo sapiens (human) NCI-H522 cells after 48 hr by SRB assay; type: functional; details: NCI-H522, 48 h

N#Cc1ccc(NC(=O)Nc2nc3ccc(OC(F)(F)F)cc3s2)cc1
GI50 [1]: 2880 nM
GI50 [2]: 1660 nM
GI50 [3]: 1510 nM
growth at 10 µM [4]: -5.18%
GI50 [5]: 427 nM
growth at 10 µM [6]: -7.46%
GI50 [7]: 1780 nM
GI50 [8]: 1510 nM
GI50 [9]: 3090 nM
GI50 [10]: 550 nM
GI50 [11]: 2400 nM
GI50 [12]: 2000 nM
GI50 [13]: 537 nM
GI50 [14]: 1350 nM
growth at 10 µM [15]: -11.2%
GI50 [16]: 1000 nM
GI50 [17]: 741 nM
growth at 10 µM [18]: 13%
growth at 10 µM [19]: -6.18%
GI50 [20]: 2690 nM
growth at 10 µM [21]: -17.4%
GI50 [22]: 575 nM
GI50 [23]: 1290 nM
GI50 [24]: 1480 nM
GI50 [25]: 1150 nM
GI50 [26]: 724 nM
GI50 [27]: 933 nM
GI50 [28]: 1780 nM
GI50 [29]: 1620 nM
inhibition [30]: inactive
GI50 [31]: 427 nM

O=C(Nc1ccc(F)cc1)Nc1nc2ccc(OC(F)(F)F)cc2s1
GI50 [1]: 2240 nM
GI50 [2]: 3470 nM
GI50 [3]: 3720 nM
growth at 10 µM [4]: 19.2%
GI50 [5]: 2630 nM
growth at 10 µM [6]: 15.8%
GI50 [7]: 3090 nM
GI50 [8]: 3980 nM
GI50 [9]: 3720 nM
GI50 [10]: 2950 nM
GI50 [11]: 4370 nM
GI50 [12]: 3890 nM
GI50 [13]: 3550 nM
GI50 [14]: 2820 nM
growth at 10 µM [15]: 0.24%
GI50 [16]: 2140 nM
GI50 [17]: 3550 nM
growth at 10 µM [18]: 12.4%
growth at 10 µM [19]: 5.63%
GI50 [20]: 3470 nM
growth at 10 µM [21]: 17.3%
GI50 [22]: 2240 nM
GI50 [23]: 3890 nM
GI50 [24]: 3240 nM
GI50 [25]: 2450 nM
GI50 [26]: 2400 nM
GI50 [27]: 3310 nM
GI50 [28]: 3090 nM
GI50 [29]: 3720 nM
inhibition [30]: inactive
GI50 [31]: 3160 nM
